{"source": "patent US20260308158A1", "about": "“TARGETING RNAS ASSOCIATED WITH TAUOPATHIES WITH SMALL MOLECULES” (University of Florida Research Foundation, Incorporated, priority 2023, published 2026)", "key": {"DDPAC MAPT SRE RNA": {"molecular_target": "DDPAC MAPT SRE RNA", "assay": "Fluorescent binding affinity, DDPAC SRE RNA", "settings": "inherent fluorescence, n=3", "description": "Fluorescent Binding Affinity Measurements. Binding assays were completed as previously described.^30 Briefly, the RNA of interest was folded in 1× Assay Buffer-1 (AB1: 8 mM Na2HPO4, pH 7.0, 185 mM NaCl, and 1 mM EDTA) by heating at 95° C. for 30 s followed by slowly cooling to room temperature. Bovine serum albumin (BSA) was then added to a final concentration of 40 μg/mL to afford 1× Assay Buffer-2 (AB2: 8 mM Na2HPO4, pH 7.0, 185 mM NaCl, 1 mM EDTA, and 40 μg/mL BSA). The RNA solution was serial diluted with 1×AB2. Then, compound of interest was added to the RNA solutions to a final concentration of 0.5 μM. […] Fluorescence intensity was measured using a Tecan Plate Reader (Gain: 100, Integration time: 40 μs). […] The change in fluorescence of the small molecule was calculated by its comparison to samples lacking RNA. Binding affinity was calculated using Equation 1, as previously described:^30\nwhere I and I0 are the measured fluorescence intensity of the compound with or without RNA, respectively, Δε is the difference between the fluorescence intensity with the infinite concentration of RNA and the fluorescence intensity without RNA, [SM]0 and [RNA]0 are the concentrations of the small molecule (SM) and RNA, respectively, and Kd is the dissociation constant."}, "[1]": {"test_system": "MAPT exon 10 splicing in htau mice", "assay": "MAPT exon 10 splicing in brain of htau mice (RT-qPCR)", "format": "in vivo, human MAPT in htau mouse", "settings": "100 mg/kg p.o. q.o.d., 20 days", "description": "RNA Isolation and Real-Time Quantitative PCR (RT-qPCR). HeLa cells were treated as described in the Luciferase Reporter assay to Study Exon 10 Alternative Splicing. LAN5 cells were seeded in 12-well plates at 0.2×10^6 cells per well, treated with compound or ASO, and incubated for 48 h. Compound stocks prepared in DMSO and ASO stocks prepared in water were diluted in growth medium and added to cells. Total RNA was extracted from cells and analyzed via RT-qPCR to determine levels of 3R and 4R tau mRNA. In brief, the cells were washed with 1×DPBS and then lysed in the well using 300 μL of Lysis Buffer provided in a Quick-RNA MiniPrep kit (Zymo Research), which was used to extract total RNA per the manufacturer's protocol including the on-column DNase I digestion. The concentration of total RNA was measured by NanoDrop 2000 (Thermo Fisher Scientific). Only samples with OD260/OD280>1.8 were carried forward for analysis. Reverse transcription (RT) was carried out on 200 ng of total RNA using a qScript cDNA synthesis kit (QuantaBio) in a total volume of 10 μL according to the manufacturer's protocol. An Applied Biosystems QS5 384-well PCR system was used to complete qPCR reactions with Power SYBR Green Master Mix (Life Technologies), 600 nM each primer (Table S3), 20 ng of cDNA (1 μL of the RT reaction), in a total volume of 33 μL. Technical triplicates (10 μL each) were aliquoted into 384-well qPCR plates (Applied biosystems, 4483285). Subsequent qPCR analysis was performed using an Applied Biosystems QS5 384-well PCR system (software v.1.3.0). 4R/3R ratio were analyzed using ΔΔCt method using Equation 2: […]\nhTau Mice Studies. htau mice and WT mice (C57BL/6J) were purchased from Jackson Laboratories. htau mice were maintained in-house through breeding between htau+/− mice. Genotype was confirmed by PCR amplification as previously described.^18 Only homozygous mice were used in in vivo studies. Mice were randomly assigned to a treatment group, which were age- and gender-matched (n=X). […] During the treatment period, nesting activity was assessed, as describe in Nesting Activity below. […]"}, "[2]": {"test_system": "DDPAC I17T MAPT exon 10 mini-gene luciferase reporter", "assay": "Luciferase reporter assay, DDPAC I17T mutant mini-gene in HeLa cells", "format": "cell-based", "settings": "Homo sapiens, 48 h, 5 μM (highest dose), read-out: reduction of luciferase activity", "description": "Luciferase-reporter Assay to Study Exon 10 Alternative Splicing. The exon 10 mini-genes, both WT and DDPAC and mutant thereof, fused to firefly luciferase, have been previously described.^18 HeLa cells were seeded in 60 mm diameter dishes and incubated for 12-16 h to 70% confluency. They were then transfected with WT, WT+I17T, DDPAC, or DDPAC+I17T luciferase reporter minigenes using JetPrime (Polyplus Transfection) per the manufacturer's recommended protocol and incubated for 4 h. After transfection, the cells were collected by trypsinization and re-seeded in 96-well plates at 0.2×10^5 cells per well, followed by treatment of compounds after 4 h. Compound stocks prepared in DMSO were diluted in growth medium and added to cells with final DMSO concentration at 0.1% (v/v). After a 48 h treatment period, the cells were washed with 1× DPBS. Each well was added with a mixture of 10 μL WST-1 reagent and 90 μL of growth medium. After incubation at 37° C. for 45 min, absorbance was measured at 450 and 690 nm. A690 as background was subtracted from A450 to obtain A450′. […] The plate was incubated at room temperature for 20 min and the luminescence was measured with a […] plate reader (1000 ms integration time). The resulted luminescence was normalized to A450′."}}}
{"smiles": "COc1cc(N)ncc1CCCN(C)CCCn1cnc2c3ccccc3n(C)c2c1=O", "note": "[Compound 2, 3-(3-((3-(6-amino-4-methoxypyridin-3-yl)propyl)(methyl)amino)propyl)-5-methyl-3,5-dihydro-4H-pyrimido[5,4-b]indol-4-one]", "values": [{"measurement": "Kd", "setting": "DDPAC MAPT SRE RNA", "value": "580 ± 100", "unit": "nM"}, {"measurement": "total human MAPT transcript levels", "setting": "[1]; htau mice", "value": "without alteration of total human MAPT transcript levels"}, {"measurement": "reduction of 4R/3R ratio", "setting": "[1]; htau mice brain", "value": "38±5", "unit": "%"}, {"measurement": "reduction of PSI10", "setting": "[1]; htau mice brain", "value": "12±2", "unit": "%"}, {"measurement": "inhibition at 5 µM", "setting": "[2]", "value": "~15", "unit": "%"}]}
